Experimental data from PubChem BioAssay (NCI).
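Values below derive from 48-hour exposures of cells grown in 96-well plates, with endpoints linearly interpolated between the two concentrations bracketing the appropriate inhibition level. TGI is the concentration that stops growth completely.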

Tests used:
Test in all cases: NCI-60 cell line screen, 48 h
K-562 leukemia = tested on: K-562 leukemia
PC-3 prostate = tested on: PC-3 prostate
U251 CNS = tested on: U251 CNS
SW-620 colon = tested on: SW-620 colon
CAKI-1 renal = tested on: CAKI-1 renal
SK-MEL-2 melanoma = tested on: SK-MEL-2 melanoma
SNB-19 CNS = tested on: SNB-19 CNS
KM12 colon = tested on: KM12 colon
NCI-H23 lung = tested on: NCI-H23 lung
SN12C renal = tested on: SN12C renal

SMILES | TGI (K-562 leukemia) [µM] | TGI (PC-3 prostate) [µM] | TGI (U251 CNS) [µM] | TGI (SW-620 colon) [µM] | TGI (CAKI-1 renal) [µM] | TGI (SK-MEL-2 melanoma) [µM] | TGI (SNB-19 CNS) [µM] | TGI (KM12 colon) [µM] | TGI (NCI-H23 lung) [µM] | TGI (SN12C renal) [µM]
N#Cc1c(-c2ccccc2)c(CN2CCCCC2)c(=O)n2c1[nH]c1ccccc12 | 60.9 | > 100 | > 100 | > 100 | > 100 | > 100 | > 100 | > 100 | > 100 | > 100
COc1cccc(C2c3cc4c(cc3OC(Nc3ccccc3)C2C)OCO4)c1OC (stereo not given) | > 100 | > 100 | > 100 | > 100 | > 100 | > 100 | > 100 | > 100 | > 100 | > 100
CC(=O)N(C(C)=O)c1cc2c3c(c1)CCCN3CCC2 | > 10 | > 10 | > 10 | > 10 | > 10 | > 10 | > 10 | > 10 | > 10 | > 10
Cc1cccc(N/C(Sc2ccccc2)=C(/C(Cl)=C(Cl)Cl)[N+](=O)[O-])c1 | 57.8 | > 100 | 31.9 | 31.1 | 37.3 | > 100 | > 100 | 48.6 | 37 | 35.1
